In general, inhibition refers to the relative decrease from the control value, in per cent.

This is an account of results in patent US8188102B2, “Amide derivative for inhibiting the growth of cancer cells” (Hanmi Holdings Co., Ltd., priority 2007, dated 2012).

Like-named read-outs stand apart in the source and are kept apart here.

One assay addresses EGFR T790M kinase (Homo sapiens, UniProt P00533, T790M). Put plainly: Inhibition of EGFR mutant enzyme (T790M).
Assay [1] addresses EGFR (EGFR type 1 kinase, Upstate) (Homo sapiens, UniProt P00533). The assay can be described thus: Inhibition of EGFR enzyme (fluorescence polarization kinase assay). The following applies: read-out: IC50 (nM) EGFR; EGFR type 1 kinase, ATP 50 μM. On the technique in general: Polarisation of emitted light reports the rotation of a fluorescent probe.
Protocol: 10 μl of an EGFR (EGFR type 1 kinase, Upstate, 10 ng/μl) was added to each well of a 96-well plate. […] The calculation and analysis of IC50 were carried out by using Microsoft Excel.
Assay [2] relates to A431 skin cancer cell line. Put plainly: Cancer cell growth inhibition, A431 (SRB). The following applies: Homo sapiens, A-431, 72 h, read-out: ID50 (nM) A431.
Assay [3] deals with SW-620 colon/rectal cancer cell line. Put plainly: Cancer cell growth inhibition, SW-620 (SRB). The conditions noted are these: Homo sapiens, SW-620, 72 h, read-out: IC50 (nM) SW-620.
A further assay addresses T1, EGFR (Homo sapiens, UniProt P00533).
T1 construct: A skin cancer cell line, A431 (ATCC: CRL-1555), was used; endogenous in cells; host or cells: A431 (ATCC: CRL-1555)
Put plainly: Prolongation study in A431 cells (EGFR phosphorylation inhibition). It is filed as cell-based. The conditions noted are these: A-431, 1 μM for 4 hrs, then washed, EGF 100 ng/ml. As for the experimental part: A skin cancer cell line, A431 (ATCC: CRL-1555), was used to test the degrees of the inventive compounds in inhibiting EGFR's phosphorylation and the prolongation of ability to inhibit it thereof.
The cell line was incubated in a culture flask at 37° C. under 95% air and 5% CO2 using a culture medium containing DMEM, 10% FBS and 1% PS. When more than 90% of the total volume of the culture flask became filled with cells, the cultured cell solution was subject to secondary incubation and was poured to each well of a 6-well plate to the extent of 500,000 cells/well. After 24 hrs, the cells were separated from the solution, washed with PBS, and incubated in a culture medium containing DMEM, 0.1% FBS and 1% PS for 16 hrs. The compounds obtained in Examples 1, 17, 19 and 36, and Tarceva as EGFR phosphorylation inhibitors were each added to the cell-containing well to a concentration of 1 μM. After 4 hrs, the cells were separated from the solution, washed 4 times with PBS after every 0, 2, 4 and 8 hrs, and incubated in a culture medium containing DMEM, 0.1% FBS and 1% PS. […] Just before the completion of the reaction, the cultured cell solution was treated with a 100 ng/ml concentration of EGF (Sigma, Cat No. E9644) for 5 mins to induce the activation of EGFR. After the completion of the reaction, the well plate holding the cultured cells was stored at −70° C. In control groups, the replacement of the medium was performed instead of the addition of the EGFR phosphorylation inhibitor, wherein the induction of EGFR activation using EGF was made only in a positive control group and not made in a negative control group.
For Western blot and enzyme immune measuring (ELISA) methods, the well plate stored at −70° C. was allowed to melt to room temperature, and then protein was extracted from the cells in the well plate using a protein extract buffer. The extraction of the protein was performed as follows: 250 μl of the protein extract buffer (Phosphosafe extraction reagent, Calbiochem, Cat No. 71296-3) comprising protease inhibitor cocktail was added to each cell-containing well, which was stirred at room temperature for 5 mins. The cells were collected using a cell scraper and put in an 1.5 ml tube, which was centrifuged at a speed of 16,000×g for 5 mins. The upper layer thus obtained was separated, of which the protein content was determined by a protein assay kit (Bio-rad, Cat No. 500-0116). The protein extracted was diluted with PBS to a concentration of 0.8 mg/ml.
A human EGFR (py1173) immunoassay kit (Biosource, Cat No. KHR9071) was used in the enzyme immune measuring method. 100 μl of the sample which was diluted by 4 folds with a standard dilution buffer in a kit was added to a strip well, which was incubated at a 4° C. refrigerator overnight. The cultured cells was separated therefrom and washed 4 times with 200 μl of a washing buffer. 100 μl of the resulting primary antibody (anti-human EGFR [pY1173]) was put to each strip well, incubated at 37° C. for 1 hr, and washed 4 times with 200 μl of a washing buffer. The resulting secondary antibody (anti-rabbit IgG-HRP) was diluted by 100 folds with an HRP dilution buffer in a kit. 100 μl of the dilute was put to each strip well, incubated at 37° C. for 30 mins, and washed 4 times with 200 μl of the washing buffer. 100 μl of an HRP substrate in a kit was put to each strip well and incubated in a darkroom for 10 to 30 mins. 100 μl of a reaction stop solution was added thereto to terminate the reaction, and then, the absorbance at 450 nm was observed.
Electrophoresis and Western blot methods were conducted based on the conventional methods in the following: An LDS buffer was added to each sample, which was allowed to boil at 70° C. for 10 mins. 10 μl of the resulting solution was loaded to a 12-well gel (Nupage 4˜12% Bis-tris gel, Invitrogen), followed by 120 volt-electrophoresis in a buffer (MOPS electrophoresis buffer, Invitrogen, Cat No. NP0006-1) for 2 hrs. […]

Assay [4] relates to H1975 lung cancer cell line. Put plainly: Cancer cell growth inhibition, H1975 (celltiter). The following applies: Homo sapiens, NCI-H1975, 48 h, read-out: IC50 (nM) H1975.
Protocol: The medium was removed from each well of the 96-well plate.
In case of H1975, the cells were diluted with a culture medium to a concentration of 50,000 cells/ml. 100 μl of the diluted cell solution was added to each well of a 96-well plate, and, after 1 day, was washed with a mixture of RPMI, 0.1% FBS and 1% penicillin-streptomycin (PS), followed by replacement of the medium. The plate was allowed to be kept overnight and be treated to various concentrations under the same medium condition for 48 hrs. Similarly to an MTT assay, 15 μl of a celltiter one shot solution (Promega) was added to each well, which was incubated for 2 to 3 hrs, and, then, the absorbance at 490 nm was determined.
Assay [5] has as its system SK-Br3 breast cancer cell line. Put plainly: Cancer cell growth inhibition, SK-Br3 (SRB). The conditions noted are these: Homo sapiens, SK-BR-3, 72 h, read-out: ID50 (nM) SK-Br3.
Setting [6] is: read-out: IC50 (nM) T790M, EGFR T790M kinase.
[7] abbreviates: 0 hr after washing, read-out: EGFR phosphorylation inhibition in A431 cell line (%) 0 hr Avg.
[8] abbreviates: 8 hrs after washing, read-out: EGFR phosphorylation inhibition in A431 cell line (%) 8 hrs Avg.
[9] abbreviates: 24 hrs after washing, read-out: EGFR phosphorylation inhibition in A431 cell line (%) 24 hrs Avg.
The mark [10] stands for this setting: 48 hrs after washing, read-out: EGFR phosphorylation inhibition in A431 cell line (%) 48 hrs Avg.
The mark [11] stands for this setting: 72 hrs after washing, read-out: EGFR phosphorylation inhibition in A431 cell line (%) 72 hrs Avg.

T1 sequence (P00533 25-1210): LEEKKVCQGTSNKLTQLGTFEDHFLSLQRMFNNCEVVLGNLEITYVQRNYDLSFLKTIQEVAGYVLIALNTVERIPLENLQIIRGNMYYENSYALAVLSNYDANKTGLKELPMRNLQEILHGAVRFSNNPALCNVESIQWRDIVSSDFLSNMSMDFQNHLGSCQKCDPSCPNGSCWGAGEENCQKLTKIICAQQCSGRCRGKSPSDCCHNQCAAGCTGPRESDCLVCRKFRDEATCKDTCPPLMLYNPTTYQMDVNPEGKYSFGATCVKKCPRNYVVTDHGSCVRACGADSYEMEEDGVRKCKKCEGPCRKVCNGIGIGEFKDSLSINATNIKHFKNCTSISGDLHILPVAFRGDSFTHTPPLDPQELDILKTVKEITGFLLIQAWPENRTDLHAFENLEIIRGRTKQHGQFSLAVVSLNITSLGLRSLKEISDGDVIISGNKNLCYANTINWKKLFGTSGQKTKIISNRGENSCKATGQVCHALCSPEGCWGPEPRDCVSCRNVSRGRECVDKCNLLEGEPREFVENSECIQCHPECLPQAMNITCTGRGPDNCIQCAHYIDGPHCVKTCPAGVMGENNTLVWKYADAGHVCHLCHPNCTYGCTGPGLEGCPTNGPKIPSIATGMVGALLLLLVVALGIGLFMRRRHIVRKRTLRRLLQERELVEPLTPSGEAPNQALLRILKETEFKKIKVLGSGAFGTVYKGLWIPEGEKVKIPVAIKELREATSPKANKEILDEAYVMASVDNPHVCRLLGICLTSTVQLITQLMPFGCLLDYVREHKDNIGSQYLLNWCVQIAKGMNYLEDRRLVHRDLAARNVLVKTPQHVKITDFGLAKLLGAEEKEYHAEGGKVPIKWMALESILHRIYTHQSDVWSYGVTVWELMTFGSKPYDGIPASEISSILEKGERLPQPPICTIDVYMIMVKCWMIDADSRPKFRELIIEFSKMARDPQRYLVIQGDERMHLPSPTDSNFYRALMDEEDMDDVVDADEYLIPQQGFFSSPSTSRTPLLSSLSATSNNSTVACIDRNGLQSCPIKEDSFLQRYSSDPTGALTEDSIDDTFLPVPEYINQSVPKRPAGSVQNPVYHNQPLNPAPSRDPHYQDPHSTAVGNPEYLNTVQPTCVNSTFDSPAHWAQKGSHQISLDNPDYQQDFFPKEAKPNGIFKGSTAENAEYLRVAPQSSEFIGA
EGFR (EGFR type 1 kinase, Upstate), sequence (P00533 25-1210): as above
EGFR T790M kinase, sequence (P00533 25-1210 T790M): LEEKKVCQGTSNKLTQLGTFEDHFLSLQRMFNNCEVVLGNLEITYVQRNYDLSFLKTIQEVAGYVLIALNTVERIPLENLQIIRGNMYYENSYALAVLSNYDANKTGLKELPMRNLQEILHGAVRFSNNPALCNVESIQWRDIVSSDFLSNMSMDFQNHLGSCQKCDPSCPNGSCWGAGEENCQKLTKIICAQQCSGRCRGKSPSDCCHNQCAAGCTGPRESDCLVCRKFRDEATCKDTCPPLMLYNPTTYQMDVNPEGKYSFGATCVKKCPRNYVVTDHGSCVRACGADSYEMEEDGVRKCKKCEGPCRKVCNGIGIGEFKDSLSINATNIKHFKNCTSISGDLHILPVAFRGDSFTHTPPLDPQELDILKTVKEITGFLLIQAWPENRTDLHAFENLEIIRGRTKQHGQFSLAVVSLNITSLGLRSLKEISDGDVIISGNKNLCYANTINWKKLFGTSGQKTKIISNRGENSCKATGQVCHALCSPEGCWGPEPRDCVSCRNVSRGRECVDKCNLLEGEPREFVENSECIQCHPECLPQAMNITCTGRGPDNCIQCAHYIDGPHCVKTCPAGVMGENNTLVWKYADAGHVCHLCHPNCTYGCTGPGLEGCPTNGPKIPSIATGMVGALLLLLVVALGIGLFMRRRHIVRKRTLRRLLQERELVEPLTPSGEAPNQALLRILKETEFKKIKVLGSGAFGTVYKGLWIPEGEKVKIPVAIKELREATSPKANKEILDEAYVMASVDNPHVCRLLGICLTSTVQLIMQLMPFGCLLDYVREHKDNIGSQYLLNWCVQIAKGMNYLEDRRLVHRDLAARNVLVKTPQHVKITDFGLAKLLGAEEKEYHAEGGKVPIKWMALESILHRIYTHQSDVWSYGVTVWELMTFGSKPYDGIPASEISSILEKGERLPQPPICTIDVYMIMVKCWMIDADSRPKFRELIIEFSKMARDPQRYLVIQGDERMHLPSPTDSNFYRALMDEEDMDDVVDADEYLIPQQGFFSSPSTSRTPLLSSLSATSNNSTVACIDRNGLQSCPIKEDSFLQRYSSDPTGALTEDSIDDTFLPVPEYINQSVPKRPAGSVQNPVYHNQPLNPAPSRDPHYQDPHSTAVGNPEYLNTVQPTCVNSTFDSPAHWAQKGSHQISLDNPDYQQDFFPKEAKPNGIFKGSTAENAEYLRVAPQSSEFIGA

Regarding `C=CC(=O)N1CC(Oc2cc3c(Nc4ccc(F)c(Cl)c4F)ncnc3cc2OC)C1` [Example 17, 1-(3-(4-(3-chloro-2,4-difluorophenylamino)-7-methoxyquinazolin-6-yloxy)azetidin-1-yl)pro-2-pen-1-one], the IC50 on EGFR T790M kinase (setting [6]) is 0.8 nM; in assay [1], 0.7 nM; in assay [2], 0.3 nM; in assay [3], > 5000 nM; in assay [4], 1.5 nM; in assay [5], 0.3 nM. Further, the inhibition at 1 µM at EGFR (setting [7]) came to 87%; on EGFR (setting [8]) it was 88%; on EGFR (setting [9]) it was 62%; on EGFR (setting [10]), 31%; on EGFR (setting [11]) it was 0%.
Regarding `C=CC(=O)N1CCC(Oc2cc3c(Nc4ccc(F)c(Cl)c4F)ncnc3cc2OC)CC1` [Example 19, 1-(4-(4-(3-chloro-2,4-difluorophenylamino)-7-methoxyquinazolin-6-yloxy)piperidin-1-yl)pro-2-pen-1-one], the IC50 on EGFR T790M kinase (setting [6]) is 1.9 nM; in assay [1], 1.1 nM; in assay [2], 0.3 nM; in assay [3], > 5000 nM; in assay [4], 1.3 nM; in assay [5] it was 0.3 nM. For the same compound, the inhibition at 1 µM on EGFR (setting [7]) is 81%; on EGFR (setting [8]) it was 86%; on EGFR (setting [9]), 80%; at EGFR (setting [10]), 34%; on EGFR (setting [11]), 0%.
As for `C=CC(=O)N1CCC(Oc2cc3c(Nc4ccc(F)c(Cl)c4F)ncnc3cc2OCCOC)CC1` [Example 117, 1-(4-(4-(3-Chloro-2,4-difluorophenylamino)-7-(2-methoxyethoxy)quinazolin-6-yloxy)piperidin-1-yl)prop-2-en-1-one], the IC50 against EGFR T790M kinase was 3 nM; in assay [1], 0.7 nM; in assay [2], 4 nM; in assay [3], > 5000 nM; in assay [4] it was 47 nM; in assay [5], 1.4 nM.
Consider `C=CC(=O)N1CC[C@H](Oc2cc3c(Nc4ccc(F)c(Cl)c4F)ncnc3cc2OC)C[C@H]1C(N)=O` [Example 120, (2S,4S)-1-acryloyl-4-(4-(3-chloro-2,4-difluorophenylamino)-7-methoxyquinazolin-6-yloxy)piperidin-2-carboxamide], for which the IC50 on EGFR T790M kinase (setting [6]) was 0.7 nM; in assay [1], 1.4 nM; in assay [2], 3 nM; in assay [3], > 5000 nM; in assay [4] it was 5.2 nM; in assay [5], 1.3 nM.
For the compound `C=CC(=O)N1CC[C@@H](Oc2cc3c(Nc4ccc(F)c(Cl)c4F)ncnc3cc2OC)C[C@@H]1C(=O)OC` [Example 133, (2R,4R)-methyl 1-acryloyl-4-(4-(3-chloro-2,4-difluorophenylamino)-7-methoxyquinazolin-6-yloxy)piperidin-2-carboxylate], the IC50 was 1.7 nM at EGFR T790M kinase (setting [6]); 4.4 nM in assay [1]; 0.7 nM in assay [2]; > 5000 nM in assay [3]; 5.4 nM in assay [4]; 0.2 nM in assay [5].
`C=CC(=O)N1CC[C@@H](Oc2cc3c(Nc4ccc(F)c(Cl)c4F)ncnc3cc2OC)C[C@@H]1C(N)=O` [Example 135, (2R,4R)-1-acryloyl-4-(4-(3-chloro-2,4-difluorophenylamino)-7-methoxyquinazolin-6-yloxy)piperidin-2-carboxamide]: the IC50 at EGFR T790M kinase (setting [6]) is 0.7 nM; in assay [1], 4.1 nM; in assay [2] it was 0.8 nM; in assay [3], > 5000 nM; in assay [4], 5.2 nM; in assay [5], 0.2 nM.
